# From patent US9611232B2, “Oxazolidinone and imidazolidinone compounds” (Hoffmann-La Roche Inc., priority 2012, dated 2017)
# Several values for one entry are separate records, joined by “and”; a condition that tells them apart may be missing. Equal values may be shown once.
# Tests used:
# KCa3.1 = KCa3.1 (Homo sapiens (Human), UniProt O15554); test: Thallium influx assay (FLIPR, FluxOR); assay type: cell-based; details: CHOK1 cells over-expressing KCa3.1; thallium (3.3 mM)/ionomycin (1 μM) activation
# Procedure: The thallium influx assay was performed with CHOK1 cells over-expressing KCa3.1 obtained from Evotec and maintained in MEM Alpha medium supplemented with 10% fetal bovine serum, 100 U/ml penicillin/[…] streptomycin and 250 μg/ml G418.
# CHOK1 wild type cells were passaged using F12/Ham's medium supplemented with 10% fetal bovine serum, 2 mM glutamine, 100 U/ml penicillin/[…] streptomycin. All cells were cultured in T175 flasks.
# Before the day of the assay, cells were harvested from culture flasks using standard trypsin digestion. Cells were counted and densities adjusted and dispensed into 384-well poly-D-lysine coated plates at 7500 […], assay plates were incubated overnight in CO2 incubator at 37° C.
# The following day, growth media was removed followed by the addition of 25 ul/well of FluxOR™ (Invitrogen) loading dye in a gluconate based assay buffer (135 mM NaGluconate,
# 2.5 mM Kgluconate, 2 mM CaNO3, 1 mM MgNO3, 10 mM HEPES (acid), 5 mM glucose pH adjusted to 7.4). Assay plates were incubated for 1 hour at 37° C. The loading dye was then replaced with gluconate assay buffer containing probenecid.
# Compounds diluted in gluconate buffer were transferred into the assay plates (25 μl/well) followed by incubation for 20 minutes at room temperature. The assay plates were then transferred to a Fluorometric Imaging Plate Reader (FLIPR), a baseline was read for twenty second capture, followed by the addition of 25 μl/well of channel activation solution in gluconate buffer—for KCa3.1 cells thallium (3.3 mM)/ionomycin(1 μM) was used and for the wild type, ionomycin only, then fluorescence was monitored for another 90 seconds.
# h KCa3.1 = h KCa3.1 (Homo sapiens (Human), UniProt O15554); test: Electrophysiology patch clamp (PatchXpress); assay type: cell-based; details: CHO cells over-expressing h KCa3.1, read-out: IC50 Ephys
# Procedure: Electrophysiology Patch Clamp
# Compounds were tested using a PatchXpress® (Model 7000A, Molecular Devices, Union City Calif.) on CHO cells over-expressing h KCa3.1 at ChanTest Corporation, 14656 Neo Parkway, Cleveland, Ohio.
SMILES,IC50 (KCa3.1),IC50 (h KCa3.1) [nM]
"CCOC(=O)CN1C(=O)O[C@@H](c2ccc(F)cc2)[C@H]1c1cccc(C(F)(F)F)c1 (racemic) [Example 31, [(4RS,5SR)-5-(4-Fluoro-phenyl)-2-oxo-4-(3-trifluoromethyl-phenyl)-oxazolidin-3-yl]-acetic acid ethyl ester]",7540 nM,
CCOC(=O)CN1C(=O)O[C@@H](c2ccc(F)cc2)[C@H]1c1ccc(F)cc1 (racemic) [Example 34],6700 nM,
CNC(=O)CN1C(=O)O[C@@H](c2cccc(C(F)(F)F)c2)[C@H]1c1ccc(F)cc1 (racemic) [Example 36],6600 nM,
CCNC(=O)CN1C(=O)O[C@@H](c2cccc(C(F)(F)F)c2)[C@H]1c1ccc(F)cc1 (racemic) [Example 37],4900 nM,
"O=C1O[C@@H](c2cccc(C(F)(F)F)c2)[C@@H](c2ccc(F)cc2)N1Cc1ncco1 (racemic) [Example 39, (4RS,5SR)-4-(4-fluorophenyl)-3-(oxazol-2-ylmethyl)-5-(3-(trifluoromethyl)phenyl)oxazolidin-2-one]",11000 nM,
Cc1coc(CN2C(=O)O[C@@H](c3cccc(C(F)(F)F)c3)[C@H]2c2ccc(F)cc2)n1 (racemic) [Example 40],6900 nM,
"CCOC(=O)CN1C(=O)OC(c2ccc(F)cc2)(c2ccc(F)cc2)C1c1ccc(F)cc1F (stereo not shown) [Example 4, [4-(2,4-Difluoro-phenyl)-5,5-bis-(4-fluoro-phenyl)-2-oxo-oxazolidin-3-yl]-acetic acid ethyl ester]",3140 nM,
"NC(=O)CN1C(=O)OC(c2ccc(F)cc2)(c2ccc(F)cc2)[C@@H]1c1ccc(F)cc1F [Example 5, 2-[(S)-4-(2,4-Difluoro-phenyl)-5,5-bis-(4-fluoro-phenyl)-2-oxo-oxazolidin-3-yl]-acetamide]",660 nM and 1140 nM,
"NC(=O)CN1C(=O)OC(c2ccc(F)cc2)(c2ccc(F)cc2)C1c1c(F)cccc1F (stereo not shown) [Example 8, 2-[4-(2,6-Difluoro-phenyl)-5,5-bis-(4-fluoro-phenyl)-2-oxo-oxazolidin-3-yl]-acetamide]",7150 nM,
"NC(=O)CN1C(=O)OC(c2ccc(F)cc2)(c2ccc(F)cc2)C1c1cccc(F)c1 (stereo not shown) [Example 9, 2-(4-(3-fluorophenyl)-5,5-bis(4-fluorophenyl)-2-oxooxazolidin-3-yl)acetamide]",6050 nM,
"CCOC(=O)CN1C(=O)OC(c2ccc(F)cc2)(c2ccc(F)cc2)[C@@H]1c1ccccc1F [Example 10, [5,5-Bis-(4-fluoro-phenyl)-4-(2-fluoro-phenyl)-2-oxo-oxazolidin-3-yl]-acetic acid ethyl ester]",1900 nM,
"CCOC(=O)CN1C(=O)OC(c2cccc(F)c2)(c2cccc(F)c2)[C@@H]1c1ccccc1F [Example 14, [(S)-5,5-Bis-(3-fluoro-phenyl)-4-(2-fluoro-phenyl)-2-oxo-oxazolidin-3-yl]-acetic acid ethyl ester]",3600 nM,
"NC(=O)CN1C(=O)NC(c2ccc(F)cc2)(c2ccc(F)cc2)[C@@H]1c1ccccc1 [Example 18, (S)-2-(4,4-bis(4-fluorophenyl)-2-oxo-5-phenylimidazolidin-1-yl)acetamide]",3700 nM,
"Cc1ccccc1[C@@H]1N(CC(N)=O)C(=O)OC1(c1ccc(F)cc1)c1ccc(F)cc1 [Example 20, 2-[(S)-5,5-Bis-(4-fluoro-phenyl)-2-oxo-4-o-tolyl-oxazolidin-3-yl]-acetamide]",2200 nM,
"CCNC(=O)CN1C(=O)OC(c2ccc(F)cc2)(c2ccc(F)cc2)[C@@H]1c1ccccc1F [Example 23, (S)—N-ethyl-2-(4-(2-fluorophenyl)-5,5-bis(4-fluorophenyl)-2-oxooxazolidin-3-yl)acetamide]",1960 nM,
"O=C1OC(c2ccc(F)cc2)(c2ccc(F)cc2)[C@H](c2ccccc2F)N1Cc1nnc[nH]1 [Example 25, (S)-3-((4H-1,2,4-triazol-3-yl)methyl)-4-(2-fluorophenyl)-5,5-bis(4-fluorophenyl)oxazolidin-2-one]",10000 nM,
"CCOC(=O)CN1C(=O)OC(c2ccc(F)cc2)(c2ccc(F)cc2)C1c1cccnc1 (stereo not shown) [Example 26, Ethyl 2-(5,5-bis(4-fluorophenyl)-2-oxo-4-(pyridin-3-yl)oxazolidin-3-yl)acetate]",9200 nM,
"NC(=O)CN1C(=O)OC(c2ccc(F)cc2)(c2ccc(F)cc2)C1c1cccnc1 (stereo not shown) [Example 27, 2-(5,5-bis(4-fluorophenyl)-2-oxo-4-(pyridin-3-yl)oxazolidin-3-yl)acetamide]",6700 nM,
"NC(=O)CN1C(=O)OC(c2cccc(Cl)c2)(c2cccc(Cl)c2)[C@@H]1c1ccccc1 [Example 29, 2-[(S)-5,5-Bis-(3-chloro-phenyl)-2-oxo-4-phenyl-oxazolidin-3-yl]-acetamide]",6700 nM,
"NC(=O)CN1C(=O)OC(c2ccc(F)cc2)(c2ccc(F)cc2)C1c1ccccn1 (stereo not shown) [Example 30, 2-(5,5-bis(4-fluorophenyl)-2-oxo-4-(pyridin-2-yl)oxazolidin-3-yl)acetamide]",17500 nM,

# More lines, in order of falling IC50 (KCa3.1), values ahead:
IC50 (KCa3.1),IC50 (h KCa3.1) [nM],SMILES
1600 nM,,N#CCN1C(=O)O[C@@H](c2cccc(C(F)(F)F)c2)[C@H]1c1ccc(F)cc1 (racemic) [Example 38]
1560 nM,,CCOC(=O)CN1C(=O)O[C@@H](c2cccc(C(F)(F)F)c2)[C@H]1c1cccc(C(F)(F)F)c1 (racemic) [Example 33]
1480 nM,,"N#CCN1C(=O)OC(c2ccc(F)cc2)(c2ccc(F)cc2)[C@@H]1c1ccccc1F [Example 24, [(S)-5,5-Bis-(4-fluoro-phenyl)-4-(2-fluoro-phenyl)-2-oxo-oxazolidin-3-yl]-acetonitrile]"
1340 nM,,"CCOC(=O)CN1C(=O)OC(c2ccc(F)cc2)(c2ccc(F)cc2)[C@@H]1c1ccc(F)cc1 [Example 6, [(S)-4,5,5-Tris-(4-fluoro-phenyl)-2-oxo-oxazolidin-3-yl]acetic acid ethyl ester]"
1100 nM,,"CCOC(=O)CN1C(=O)OC(c2ccccc2F)(c2ccccc2F)[C@@H]1c1ccccc1F [Example 12, [(S)-4,5,5-Tris-(2-fluoro-phenyl)-2-oxo-oxazolidin-3-yl]acetic acid ethyl ester]"
1000 nM,,"CCOC(=O)CN1C(=O)OC(c2ccccc2)(c2ccccc2)[C@@H]1c1ccccc1F [Example 16, [(S)-4-(2-Fluoro-phenyl)-2-oxo-5,5-diphenyl-oxazolidin-3-yl]-acetic acid ethyl ester]"
860 nM,58,"NC(=O)CN1C(=O)OC(c2ccc(F)cc2)(c2ccc(F)cc2)[C@@H]1c1ccccc1 [Example 1, (S)-2-(5,5-bis(4-fluorophenyl)-2-oxo-4-phenyloxazolidin-3-yl)acetamide]"
830 nM,,"NC(=O)CN1C(=O)OC(c2ccccc2F)(c2ccccc2F)[C@@H]1c1ccccc1 [Example 2, 2-[(S)-5,5-Bis-(2-fluoro-phenyl)-2-oxo-4-phenyl-oxazolidin-3-yl]-acetamide]"
770 nM,,"NC(=O)CN1C(=O)OC(c2ccc(F)c(F)c2)(c2ccc(F)c(F)c2)[C@@H]1c1ccccc1 [Example 28, (S)-2-(5,5-bis(3,4-difluorophenyl)-2-oxo-4-phenyloxazolidin-3-yl)acetamide]"
720 nM,45,"NC(=O)CN1C(=O)OC(c2ccc(F)cc2)(c2ccc(F)cc2)[C@@H]1c1ccc(F)cc1 [Example 7, 2-[(S)-4,5,5-Tris-(4-fluoro-phenyl)-2-oxo-oxazolidin-3-yl]-acetamide]"
650 nM,,"COC(=O)CN1C(=O)OC(c2ccc(F)cc2)(c2ccc(F)cc2)[C@@H]1c1ccccc1F [Example 21, (S)-methyl 2-(4-(2-fluorophenyl)-5,5-bis(4-fluorophenyl)-2-oxooxazolidin-3-yl)acetate]"
630 nM,,"NC(=O)CN1C(=O)OC(c2cccc(F)c2)(c2cccc(F)c2)[C@@H]1c1ccccc1 [Example 3, 2-[(S)-5,5-Bis-(3-fluoro-phenyl)-2-oxo-4-phenyl-oxazolidin-3-yl]-acetamide]"
600 nM,62,"CCOC(=O)CN1C(=O)O[C@@H](c2cccc(C(F)(F)F)c2)[C@H]1c1ccc(F)cc1 (racemic) [Example 32, [(4RS,5SR)-4-(4-Fluoro-phenyl)-2-oxo-5-(3-trifluoromethyl-phenyl)-oxazolidin-3-yl]-acetic acid ethyl ester]"
600 nM,,"CNC(=O)CN1C(=O)OC(c2ccc(F)cc2)(c2ccc(F)cc2)[C@@H]1c1ccccc1F [Example 22, (S)-2-(4-(2-fluorophenyl)-5,5-bis(4-fluorophenyl)-2-oxooxazolidin-3-yl)-N-methylacetamide]"
450 nM,,"CCOC(=O)CN1C(=O)OC(c2ccc(F)cc2)(c2ccc(F)cc2)[C@@H]1C(C)(C)C [Example 35, [(S)-4-tert-Butyl-5,5-bis-(4-fluoro-phenyl)-2-oxo-oxazolidin-3-yl]-acetic acid ethyl ester]"
250 nM,22,"NC(=O)CN1C(=O)OC(c2ccc(F)cc2)(c2ccc(F)cc2)[C@@H]1c1ccccc1F [Example 11, 2-[(S)-5,5-Bis-(4-fluoro-phenyl)-4-(2-fluoro-phenyl)-2-oxo-oxazolidin-3-yl]-acetamide]"
